System: 935938-334-R-J1-PDC spheroids with HUVEC/MSC, viability
Assay: Anticancer human tumor 935938-334-R-J1-PDC patient-derived small intestine adenocarcinoma cell line growth inhibition [PI3K]
Settings: for IC50: curve of first compound; for viability, T/C: stronger effect = lower value; active = viability on the fitted dose curve at most 10% of control; inactive = the rest
Summary of the method: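 Combination activity was assessed by viability in multicellular tumor spheroids carrying HUVEC and MSC components. Agents were tested with PI3K inhibitors from a Cmax-based top dose (or 10 microM) downward in half-log increments.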

[1] = second compound 0.0316 µM, first compound 0.0316 µM
[2] = second compound 0.0316 µM, first compound 0.1 µM
[3] = second compound 0.1 µM, first compound 0.0316 µM
[4] = second compound 0.1 µM, first compound 0.1 µM
[5] = second compound 0.316 µM, first compound 0.0316 µM
[6] = second compound 0.316 µM, first compound 0.1 µM
[7] = second compound 1 µM, first compound 0.0316 µM
[8] = second compound 1 µM, first compound 0.1 µM
[9] = second compound 3.16 µM, first compound 0.0316 µM
[10] = second compound 3.16 µM, first compound 0.1 µM
[11] = second compound 10 µM, first compound 0.0316 µM
[12] = second compound 10 µM, first compound 0.1 µM
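Also: compound exposure lasted seven days before viability was read.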
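For viability, T/C in this document: percent of vehicle DMSO treated spheroid viability so 100% = untreated.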

CC(=O)c1c(C)c2cnc(Nc3ccc(N4CCNCC4)cn3)nc2n(C2CCCC2)c1=O + Cc1nc(NC(=O)N2CCCC2C(N)=O)sc1-c1ccnc(C(C)(C)C(F)(F)F)c1
inactive: viability, T/C (second compound 0.0316 µM, first compound 0.000316 µM) 104% | viability, T/C (second compound 0.0316 µM, first compound 0.001 µM) 95.7% | viability, T/C (second compound 0.0316 µM, first compound 0.00316 µM) 112% | viability, T/C (second compound 0.0316 µM, first compound 0.01 µM) 102% | viability, T/C [1] 74.8% | viability, T/C [2] 55.9% | viability, T/C (second compound 0.1 µM, first compound 0.000316 µM) 94.4% | viability, T/C (second compound 0.1 µM, first compound 0.001 µM) 96.5% | viability, T/C (second compound 0.1 µM, first compound 0.00316 µM) 89.4% | viability, T/C (second compound 0.1 µM, first compound 0.01 µM) 78.5% | viability, T/C [3] 85.7% | viability, T/C [4] 52.8% | viability, T/C (second compound 0.316 µM, first compound 0.000316 µM) 87.8% | viability, T/C (second compound 0.316 µM, first compound 0.001 µM) 75% | viability, T/C (second compound 0.316 µM, first compound 0.00316 µM) 63.4% | viability, T/C (second compound 0.316 µM, first compound 0.01 µM) 80.7% | viability, T/C [5] 51.6% | viability, T/C [6] 44.1% | viability, T/C (second compound 1 µM, first compound 0.000316 µM) 77% | viability, T/C (second compound 1 µM, first compound 0.001 µM) 49.8% | viability, T/C (second compound 1 µM, first compound 0.00316 µM) 63.3% | viability, T/C (second compound 1 µM, first compound 0.01 µM) 76.4% | viability, T/C [7] 47.9% | viability, T/C [8] 31.1% | viability, T/C (second compound 3.16 µM, first compound 0.000316 µM) 67.2% | viability, T/C (second compound 3.16 µM, first compound 0.001 µM) 61.8% | viability, T/C (second compound 3.16 µM, first compound 0.00316 µM) 43.7% | viability, T/C (second compound 3.16 µM, first compound 0.01 µM) 42% | viability, T/C [9] 33.1% | viability, T/C [10] 29.9% | viability, T/C (second compound 10 µM, first compound 0.000316 µM) 39.5% | viability, T/C (second compound 10 µM, first compound 0.001 µM) 40% | viability, T/C (second compound 10 µM, first compound 0.00316 µM) 35.3% | viability, T/C (second compound 10 µM, first compound 0.01 µM) 37.2% | viability, T/C [11] 33.3% | viability, T/C [12] 26.5%
< 0.316 nM: IC50 (second compound 10 µM)
> 100 nM: IC50 (second compound 0.0316 µM) | IC50 (second compound 0.1 µM)
2.55 nM: IC50 (second compound 3.16 µM)
27.8 nM: IC50 (second compound 1 µM)
58.2 nM: IC50 (second compound 0.316 µM)

CNC(=O)c1ccc(N2C(=S)N(c3ccc(C#N)c(C(F)(F)F)c3)C(=O)C2(C)C)cc1F + Cc1nc(NC(=O)N2CCCC2C(N)=O)sc1-c1ccnc(C(C)(C)C(F)(F)F)c1
162 nM: IC50 (second compound 10 µM)
inactive: viability, T/C [1] 111% | viability, T/C [2] 84.3% | viability, T/C (second compound 0.0316 µM, first compound 0.316 µM) 84.9% | viability, T/C (second compound 0.0316 µM, first compound 1 µM) 91.9% | viability, T/C (second compound 0.0316 µM, first compound 3.16 µM) 100% | viability, T/C (second compound 0.0316 µM, first compound 10 µM) 88% | viability, T/C [3] 81.7% | viability, T/C [4] 88.7% | viability, T/C (second compound 0.1 µM, first compound 0.316 µM) 65.5% | viability, T/C (second compound 0.1 µM, first compound 1 µM) 84.4% | viability, T/C (second compound 0.1 µM, first compound 3.16 µM) 76.8% | viability, T/C (second compound 0.1 µM, first compound 10 µM) 62.9% | viability, T/C [5] 103% | viability, T/C [6] 59.7% | viability, T/C (second compound 0.316 µM, first compound 0.316 µM) 81.9% | viability, T/C (second compound 0.316 µM, first compound 1 µM) 69.6% | viability, T/C (second compound 0.316 µM, first compound 3.16 µM) 77% | viability, T/C (second compound 0.316 µM, first compound 10 µM) 56.7% | viability, T/C [7] 75.2% | viability, T/C [8] 76.8% | viability, T/C (second compound 1 µM, first compound 0.316 µM) 70.2% | viability, T/C (second compound 1 µM, first compound 1 µM) 101% | viability, T/C (second compound 1 µM, first compound 3.16 µM) 56.2% | viability, T/C (second compound 1 µM, first compound 10 µM) 70.7% | viability, T/C [9] 39.6% | viability, T/C [10] 43.9% | viability, T/C (second compound 3.16 µM, first compound 0.316 µM) 51% | viability, T/C (second compound 3.16 µM, first compound 1 µM) 51.5% | viability, T/C (second compound 3.16 µM, first compound 3.16 µM) 47% | viability, T/C (second compound 3.16 µM, first compound 10 µM) 47.3% | viability, T/C [11] 45.6% | viability, T/C [12] 59.7% | viability, T/C (second compound 10 µM, first compound 0.316 µM) 46.2% | viability, T/C (second compound 10 µM, first compound 1 µM) 39.3% | viability, T/C (second compound 10 µM, first compound 3.16 µM) 38.5% | viability, T/C (second compound 10 µM, first compound 10 µM) 34.3%
< 31.6 nM: IC50 (second compound 3.16 µM)
> 10000 nM: IC50 (second compound 0.0316 µM) | IC50 (second compound 0.1 µM) | IC50 (second compound 0.316 µM) | IC50 (second compound 1 µM)

Cn1cnc2c(F)c(Nc3ccc(Br)cc3Cl)c(C(=O)NOCCO)cc21 + Cc1nc(NC(=O)N2CCCC2C(N)=O)sc1-c1ccnc(C(C)(C)C(F)(F)F)c1
37 nM: IC50 (second compound 0.0316 µM)
11.6 nM: IC50 (second compound 1 µM)
< 9.49 nM: IC50 (second compound 3.16 µM) | IC50 (second compound 10 µM)
29 nM: IC50 (second compound 0.316 µM)
29.7 nM: IC50 (second compound 0.1 µM)
inactive: viability, T/C (second compound 0.0316 µM, first compound 0.00949 µM) 62% | viability, T/C (second compound 0.0316 µM, first compound 0.03 µM) 54.8% | viability, T/C (second compound 0.0316 µM, first compound 0.0949 µM) 32.8% | viability, T/C (second compound 0.0316 µM, first compound 0.3 µM) 31.1% | viability, T/C (second compound 0.0316 µM, first compound 0.949 µM) 20.4% | viability, T/C (second compound 0.0316 µM, first compound 3 µM) 22.9% | viability, T/C (second compound 0.1 µM, first compound 0.00949 µM) 73.7% | viability, T/C (second compound 0.1 µM, first compound 0.03 µM) 44.7% | viability, T/C (second compound 0.1 µM, first compound 0.0949 µM) 41.4% | viability, T/C (second compound 0.1 µM, first compound 0.3 µM) 25.8% | viability, T/C (second compound 0.1 µM, first compound 0.949 µM) 23.6% | viability, T/C (second compound 0.1 µM, first compound 3 µM) 17.2% | viability, T/C (second compound 0.316 µM, first compound 0.00949 µM) 62.9% | viability, T/C (second compound 0.316 µM, first compound 0.03 µM) 48.5% | viability, T/C (second compound 0.316 µM, first compound 0.0949 µM) 36.9% | viability, T/C (second compound 0.316 µM, first compound 0.3 µM) 23% | viability, T/C (second compound 0.316 µM, first compound 0.949 µM) 18.6% | viability, T/C (second compound 0.316 µM, first compound 3 µM) 17.3% | viability, T/C (second compound 1 µM, first compound 0.00949 µM) 52.9% | viability, T/C (second compound 1 µM, first compound 0.03 µM) 37% | viability, T/C (second compound 1 µM, first compound 0.0949 µM) 26.4% | viability, T/C (second compound 1 µM, first compound 0.3 µM) 19.4% | viability, T/C (second compound 1 µM, first compound 0.949 µM) 14.2% | viability, T/C (second compound 1 µM, first compound 3 µM) 12.6% | viability, T/C (second compound 3.16 µM, first compound 0.00949 µM) 30.8% | viability, T/C (second compound 3.16 µM, first compound 0.03 µM) 39.6% | viability, T/C (second compound 3.16 µM, first compound 0.0949 µM) 19.6% | viability, T/C (second compound 3.16 µM, first compound 0.3 µM) 17.2% | viability, T/C (second compound 3.16 µM, first compound 0.949 µM) 18.5% | viability, T/C (second compound 3.16 µM, first compound 3 µM) 11.1% | viability, T/C (second compound 10 µM, first compound 0.00949 µM) 28.7% | viability, T/C (second compound 10 µM, first compound 0.03 µM) 20.5% | viability, T/C (second compound 10 µM, first compound 0.0949 µM) 17.2% | viability, T/C (second compound 10 µM, first compound 0.3 µM) 14.8% | viability, T/C (second compound 10 µM, first compound 0.949 µM) 14.8% | viability, T/C (second compound 10 µM, first compound 3 µM) 12.1%

Reference: PubChem BioAssay AID1963966 (Molecular Pharmacology Branch, DTP, NCI, 2024)
